In patent US20220313686A1, “PHARMACEUTICAL COMPOSITIONS COMPRISING A COMBINATION OF OPIOID ANTAGONISTS” (YISSUM RESEARCH DEVELOPMENT COMPANY OF THE HEBREW …, priority 2019, published 2022):

Assays:
opioid receptors [1] = conditions: metabolite of naltrexone; cited from earlier work
[2] = Passive loading of naloxone and naltrexone into MLV's liposomes; assay type: physicochemical
opioid receptors [3] = conditions: in vivo; cited from earlier work
μ-opioid receptor = μ-opioid receptor (Homo sapiens, UniProt P35372); conditions: cited from earlier work
Sequence of μ-opioid receptor (P35372 whole entry, species assumed): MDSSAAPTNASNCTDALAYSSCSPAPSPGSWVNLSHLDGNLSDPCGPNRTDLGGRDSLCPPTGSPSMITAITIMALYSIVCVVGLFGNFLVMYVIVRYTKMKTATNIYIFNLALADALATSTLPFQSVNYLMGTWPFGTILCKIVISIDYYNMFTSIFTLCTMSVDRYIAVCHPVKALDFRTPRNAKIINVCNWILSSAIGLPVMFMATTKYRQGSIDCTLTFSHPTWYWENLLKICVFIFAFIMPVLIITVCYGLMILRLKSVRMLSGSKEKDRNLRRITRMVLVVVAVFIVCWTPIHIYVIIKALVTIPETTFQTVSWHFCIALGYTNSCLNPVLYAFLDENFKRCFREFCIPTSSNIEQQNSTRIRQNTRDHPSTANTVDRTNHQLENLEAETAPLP

κ-receptor [4] = molecular target: T1, κ-receptor (Homo sapiens, UniProt P41145); conditions: in vitro; cited from earlier work
T1 sequence (P41145 whole entry): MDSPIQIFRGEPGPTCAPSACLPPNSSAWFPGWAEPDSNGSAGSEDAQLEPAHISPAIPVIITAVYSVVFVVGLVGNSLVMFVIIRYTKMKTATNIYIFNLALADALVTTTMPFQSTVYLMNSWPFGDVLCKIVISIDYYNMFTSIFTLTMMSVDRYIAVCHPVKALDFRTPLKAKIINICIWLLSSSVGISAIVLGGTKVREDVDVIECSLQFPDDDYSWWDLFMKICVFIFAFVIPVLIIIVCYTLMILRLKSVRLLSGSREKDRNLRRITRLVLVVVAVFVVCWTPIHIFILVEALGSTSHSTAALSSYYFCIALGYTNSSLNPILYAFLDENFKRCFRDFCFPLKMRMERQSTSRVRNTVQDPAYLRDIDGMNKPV

δ-receptor [5] = molecular target: T2, δ-receptor (Homo sapiens, UniProt P41143); conditions: in vitro; cited from earlier work
T2 sequence (P41143 whole entry): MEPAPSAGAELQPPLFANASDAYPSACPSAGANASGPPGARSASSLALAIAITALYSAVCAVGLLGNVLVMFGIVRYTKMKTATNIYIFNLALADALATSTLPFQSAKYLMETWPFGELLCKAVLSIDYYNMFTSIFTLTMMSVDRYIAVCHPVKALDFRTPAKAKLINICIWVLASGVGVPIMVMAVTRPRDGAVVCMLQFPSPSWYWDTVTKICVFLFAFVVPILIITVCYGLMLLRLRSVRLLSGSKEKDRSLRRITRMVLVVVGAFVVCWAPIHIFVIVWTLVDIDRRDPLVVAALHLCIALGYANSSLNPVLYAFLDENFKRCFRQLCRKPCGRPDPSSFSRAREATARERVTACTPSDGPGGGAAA

μ-receptor = μ-receptor (Homo sapiens, UniProt P35372); conditions: in vitro; cited from earlier work
Sequence of μ-receptor (P35372 whole entry, species assumed): as the sequence (P35372 whole entry, species assumed) above

κ-receptor [6] = molecular target: T1, κ-receptor; conditions: in vitro; cited from earlier work; remark: listed apart in the source
δ-receptor [7] = molecular target: T2, δ-receptor; conditions: in vitro; cited from earlier work; remark: listed apart in the source

Question: With Oc1ccc2c3c1O[C@H]1[C@H](O)CC[C@@]4(O)[C@@H](C2)N(CC2CC2)CC[C@]314 [60-naltrexol] as the compound, how does the antagonist activity (opioid receptors [1]) read?
Answer: active antagonist

Question: With C=CCN1CC[C@]23c4c5ccc(O)c4O[C@H]2C(=O)CC[C@@]3(O)[C@H]1C5 [Naloxone, 17-allyl-4,5α-epoxy-3,14-dihydroxymorphinan-6-one] as the compound, how does the Liposomal naloxone conc. [2] read?
Answer: 6.8 mg/mL

Question: For O=C1CC[C@@]2(O)[C@H]3Cc4ccc(O)c5c4[C@@]2(CCN3CC2CC2)[C@H]1O5 [Naltrexone, 17-(cyclopropylmethyl)-4,5α-epoxy-3,14-dihydroxymorphinan-6-one], which Liposomal naltrexone conc. [2] is on record?
Answer: 8.1 mg/mL

Question: What about the duration of effect (opioid receptors [3]) of the same compound?
Answer: last about a day

Question: Which results are given for NC(=O)c1ccc2c(c1O)[C@]13CCN(CC4CC4)[C@H](C2)[C@]1(O)CCC(=O)C3 [Samidorphan, 3-carboxamido-4-hydroxynaltrexone]?
Answer: greater affinity at mu-opioid receptor compared to naltrexone (μ-opioid receptor): five; affinity at μ-receptor (μ-opioid receptor; in vitro): high affinity; affinity at κ-receptor (κ-receptor [4]): high affinity; affinity at δ-receptor (δ-receptor [5]): high affinity; action at μ-receptor (μ-receptor): antagonist; action at κ-receptor (κ-receptor [6]): partial agonist; action at δ-receptor (δ-receptor [7]): partial agonist
